Laboratory results as given in patent publication US9730444B2, “Herbicidal compositions comprising isoxaben and aminopyralid” (Dow AgroSciences LLC, priority 2013, dated 2017).

What was measured:
[1] = system: GERDI = Geranium dissectum (cutleaf geranium); assay: Small plot field trial in winter wheat, foliar-applied, visual % control of GERDI; type: in vivo; details: Trial 1, observed mean, 200 L/ha water, winter wheat crop stage 12-13, rates: isoxaben 40 g ai/ha, aminopyralid 5 g ae/ha, flufenacet 200 g ai/ha, diflufenican 100 g ai/ha
Description: (§1) Results in Table 1 are for foliar-applied compositions in small plot research experiments to evaluate the efficacy of the compositions in winter wheat. Application water volume was 200 liters per hectare (L/ha). Crop stage at time of application was 12-13. The values reported are means. […] Colby's equation was used to determine the herbicidal effects expected from the mixtures (Colby, S. R. Calculation of the synergistic and antagonistic response of herbicide combinations. Weeds 1967, 15, 20-22.).
(§2) More specifically, the following equation is used to calculate the expected activity of mixtures containing two herbicical active ingredients: Expected=A+B−(A×B/100) • A=observed efficacy of a first active ingredient at the same concentration as used in the mixture; • B=observed efficacy of the second active ingredient (or product, which may contain a combination of active ingredients) at the same concentration as used in the mixture. For mixtures containing three herbicidal active ingredients, the following equation was used to calculate the expected activity:
(§3) [formula] • A=observed efficacy of a first active ingredient at the same concentration as used in the mixture; • B=observed efficacy of a second active ingredient B at the same concentration as used in the mixture; • C=observed efficacy of a third active ingredient C at the same concentration as used in the mixture. The following abbreviations are used in Table 1: • GERDI=Geranium dissectum (cutleaf geranium) • STEME=Stellaria media (L.) Vill. (common chickweed) • g ai/ha=grams active ingredient per hectare • g ae/ha=grams acid equivalent per hectare • Ob=observed value of percent (%) control rated visually • Ex=expected value of percent (%) control as calculated by Colby's equation

[2] = system: STEME = Stellaria media (L.) Vill. (common chickweed); assay: Small plot field trial in winter wheat, foliar-applied, visual % control of STEME; type: in vivo; details: Trial 1, observed mean, 200 L/ha water, winter wheat crop stage 12-13, rates: isoxaben 40 g ai/ha, aminopyralid 5 g ae/ha, flufenacet 200 g ai/ha, diflufenican 100 g ai/ha
Description: as §1, §2, §3

SMILES	VISUAL % CONTROL OF GERDI 28 DAT Ob [1] [d %]	VISUAL % CONTROL OF STEME 28 DAT Ob [2] [e %]
Nc1cc(Cl)nc(C(=O)O)c1Cl [aminopyralid, 4-amino-3,6-dichloropyridine-2-carboxylic acid]	0	0
CCC(C)(CC)c1cc(NC(=O)c2c(OC)cccc2OC)on1 [isoxaben, N-[3-(1-ethyl-1-methylpropyl)isoxazol-5-yl]-2,6-dimethoxybenzamide]	0	0
CC(C)N(C(=O)COc1nnc(C(F)(F)F)s1)c1ccc(F)cc1 [flufenacet, N-(4-fluorophenyl)-N-(1-methylethyl)-2-[[5-(trifluoromethyl)-1,3,4-thiadiazol-2-yl]oxy]acetamide]	0	0
